The test system of assay [1] is Peripheral Sensory Neuropathy Induced by Bortezomib in Mice. Briefly: von Frey test, bortezomib-induced peripheral sensory neuropathy. Particulars: duloxetine 30 mg/kg daily. In kind it is in vivo. The text has this:
(§1) The mice in the three groups in the above (1) were put in a cage and a filament having a strength of 0.16 g was pressed on the plantar surface of the leg to measure the number of times (a score) of avoidance response.
In the present test, the mice were divided into three groups by a difference in test objects. As in Example 1, male Balb/c mice of 6 to 7 weeks old were used. The mice were divided into a total of three groups, a control group, a bortezomib administration group, and a bortezomib and Lentinus edodes mycelium extract administration group (bortezomib+Lentinus edodes mycelium extract administration group).
Bortezomib was administered to each mouse once a day at a dose of 1 mg/kg. Further, the Lentinus edodes mycelium extract was administered to each mouse once a day at a dose of 2 g/kg.
Further, the number of times of administration was set to once a week (on Day 0, Day 7, and Day 14) for bortezomib and daily (from Day 0 to Day 15) for the Lentinus edodes mycelium extract in both the von Frey test and the cold plate test below.
Evaluation was performed in the same manner as in the test with oxaliplatin in Example 1. Referring to FIG. 7, the horizontal axis indicates an elapsed time after administration (days) and the vertical axis indicates the avoidance response (scores). Open circles with a solid line represent the control group. Filled circles with a solid line represent the group in which only bortezomib was administered. Open squares with a dash line represent the group in which bortezomib and the Lentinus edodes mycelium extract were administered at the same time (bortezomib+Lentinus edodes mycelium extract administration group). When the difference with the control group was determined to be significant using a significance level of 5%, the data were marked by “*”.
(§2) In the present test, the mice were divided into six groups by a difference in test objects. As in Example 1, male Balb/c mice of 6 to 7 weeks old were used. […]

In assay [2] the test system is Peripheral Sensory Neuropathy Induced by Paclitaxel in Mice. Description: von Frey test, paclitaxel-induced peripheral sensory neuropathy. In kind it is in vivo. Particulars: duloxetine 30 mg/kg daily.
Text: as §1
Male Balb/c mice of 6 to 7 weeks old were used as in Example 1. The mice were divided into three groups: a control group, a paclitaxel administration group, and a paclitaxel and Lentinus edodes mycelium extract administration group (paclitaxel+Lentinus edodes mycelium extract administration group). Paclitaxel was administered to each mouse once a day at a dose of 6 mg/kg. Further, the Lentinus edodes mycelium extract was administered to each mouse once a day at a dose of 2 g/kg.
Further, the number of times of administration was set to once a week (on Day 0, Day 7, and Day 14) for paclitaxel and daily (from Day 0 to Day 15) for the Lentinus edodes mycelium extract in both the von Frey test and the cold plate test below.
Evaluation was performed in the same manner as in the test with oxaliplatin. Referring to FIG. 3, the horizontal axis indicates an elapsed time after administration (days) and the vertical axis indicates the avoidance response (scores). Open circles with a solid line represent the control group. Filled circles with a solid line represent the group in which only paclitaxel was administered. Open squares with a dash line represent the group in which paclitaxel and the Lentinus edodes mycelium extract were administered (paclitaxel+Lentinus edodes mycelium extract administration group). When the difference with the control group was determined to be significant using a significance level of 5%, the data were marked by “*”.
as §2

`CNCC[C@H](Oc1cccc2ccccc12)c1cccs1` [duloxetine]: the “avoidance score compared with bortezomib administration group, von Frey test” value in assay [1] (3-day delayed after bortezomib) is recorded as “almost the same score as that in the bortezomib administration group”. The “avoidance score, von Frey test” value in assay [1] (6-day delayed after bortezomib) and in assay [2] (6-day delayed after paclitaxel) was “same tendency as that in the duloxetine 3-day delayed administration group” each time. Moreover, the “avoidance score compared with paclitaxel administration group, von Frey test” value in assay [2] (3-day delayed after paclitaxel) is given as “almost the same avoidance score as that in the paclitaxel administration group”.

(Values after patent US11793845B2, “Composition for ameliorating peripheral sensory neuropathy” (KINKI UNIVERSITY, priority 2016, dated 2023).)
